Laboratory results: patent US11958821B2, “Phenethylamine compounds salts, polymorphic forms and methods of use thereof” (Terran Biosciences Inc., priority 2021, dated 2024)

Tests used:
[1] = cited from earlier work
[2] = Dynamic vapor sorption (DVS) analysis with post-DVS XRPD; assay type: physicochemical
Description: DVS analysis was carried out using a TA Instruments Q5000 Dynamic Vapor Sorption analyzer. The instrument was calibrated with standard weights and a sodium bromide standard for humidity. Approximately 5-25 mg of sample was loaded into a metal-coated quartz pan for analysis. The sample was analyzed at 25° C. with a maximum equilibration time of one hour in 10% relative humidity (RH) steps from 5 to 95% RH (adsorption cycle) and from 95 to 5% RH (desorption cycle). The movement from one step to the next occurred either after satisfying the equilibrium criterion of 0.01% weight change or, if the equilibrium criterion was not met, after one hour. The percent weight change values were calculated using Microsoft Excel®.

[3] = Solid-form stability of MBDB maleate forms (ball milling, drying, interconversion slurry); assay type: physicochemical
Description: During the screen, a single crystal Maleate 1 of sufficient size and quality was obtained from a vapor diffusion experiment with ethanol and hexane. The crystal structure is reported elsewhere but the data confirmed the anhydrous/unsolved nature of the material. […] Two new crystalline forms of MBDB Maleate were observed during the screening designated as MBDB Maleate 2 and MBDB Maleate 3 (FIG. 96, 97). Additional characterization of these samples was conducted to better understand the nature of the materials produced, as shown below. MBDB Maleate 2 was generated once from a cooling crystallization from dioxane. The proton nuclear magnetic resonance (NMR) spectrum was consistent with a monomaleate salt of MBDB and contained residual dioxane. Only a limited amount of material was recovered so the only additional characterization that could be completed was differential scanning calorimetry (DSC). The DSC thermogram appears consistent with an anhydrous/unsolvated form with a likely melt at 96° C. (FIG. 100). […] An attempt was made to reproduce Maleate 2 using the same conditions and seeds of Maleate 2. PXRD analysis of the recovered solids however was consistent with Maleate 1. MBDB Maleate 3 was isolated from an evaporation experiment involving chloroform and ethyl acetate. NMR analysis of the material was consistent with a mono-maleate salt of MBDB. […]

[4] = Physical stability of MBDB salts at 40° C./75% RH; assay type: physicochemical
Description: During the screen, a single crystal Maleate 1 of sufficient size and quality was obtained from a vapor diffusion experiment with ethanol and hexane. The crystal structure is reported elsewhere but the data confirmed the anhydrous/unsolved nature of the material. […] Two new crystalline forms of MBDB Maleate were observed during the screening designated as MBDB Maleate 2 and MBDB Maleate 3 (FIG. 96, 97). Additional characterization of these samples was conducted to better understand the nature of the materials produced, as shown below. MBDB Maleate 2 was generated once from a cooling crystallization from dioxane. The proton nuclear magnetic resonance (NMR) spectrum was consistent with a monomaleate salt of MBDB and contained residual dioxane. Only a limited amount of material was recovered so the only additional characterization that could be completed was differential scanning calorimetry (DSC). The DSC thermogram appears consistent with an anhydrous/unsolvated form with a likely melt at 96° C. (FIG. 100). […] An attempt was made to reproduce Maleate 2 using the same conditions and seeds of Maleate 2. PXRD analysis of the recovered solids however was consistent with Maleate 1. MBDB Maleate 3 was isolated from an evaporation experiment involving chloroform and ethyl acetate. NMR analysis of the material was consistent with a mono-maleate salt of MBDB. Thermal analysis was consistent with an anhydrous/unsolvated material with a likely melting point of 73° C. (FIG. 101). […] No additional characterization was completed on this sample due to the limited amount of material that was recovered.

In the case of `CCNC(C)Cc1ccc2c(c1)OCO2` (stereo not shown) [MDE, N-ethyl-3,4-methylenedioxyamphetamine], the “Reported time to achieve peak effects” value ([1]; after dosing) is listed as 1 to 2 h and the “Oral dose for drug activity level Very Strong” value ([1]; oral) is listed as ≥225 mg.
With `CCC(Cc1ccc2c(c1)OCO2)NC.O=C(O)/C=C\C(=O)O` (stereo not shown) [Maleate 1] the “Hygroscopicity by DVS” value ([2]; 25° C., 5 to 95% RH) was “minimal water sorption over RH range”, the DVS weight gain ([2]; at 95% RH, listed as MBDB Maleate Form1) was 0.6% wt gain and the “Hygroscopic?” value ([2]; based on moisture uptake at 95% observed during DVS analysis) was “Slightly”. The “Stability to ball milling (recovered solids vs starting material)” value ([3]; ball milled) was “stable under mechanical stressing”, the “Physical stability by PXRD” value ([4]; 40° C./75% RH for 50 days) was “no change” and the “Physical Stability” value ([4]; 40° C./75% RH overnight) was “No change”. The “Physical Stability” value ([4]; after 1 day at 40° C./75% RH) was “No visible change”.
For `CCC(Cc1ccc2c(c1)OCO2)NC.O=C(O)/C=C\C(=O)O` (stereo not shown) [Maleate 3], the “Form stability on drying (PXRD)” value ([3]; mixture of Maleate 3 and Maleate 1 dried at 46° C. overnight, recovered solids Maleate 1) was “metastable under these conditions”.
